{"source": "patent US20100317850A1", "about": "(priority 2008, published 2010)", "test_system": "Aβ42 production", "assay": "Quantification of Aβ peptide in culture of neurons from rat fetus brain (Aβ ELISA)", "assay_type": "cell-based", "details": "rat primary neuronal culture (cerebral cortex, embryonic day 18 Wistar rats); medium collected three days after addition of the compound; Aβx-42 ELISA; read-out: Aβ42 production reducing effect IC50", "summary_of_the_method": "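Primary cortical neurons from embryonic day 18 Wistar rats were cultured 4 days, then exposed to compound in Neurobasal/B27 without 2-ME, final DMSO ≤1%. After three days, medium was collected and Aβx-42 measured undiluted by sandwich ELISA.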", "data": [{"substance": "N-[3-((4aR*,9aS*)-2- amino-4a,5,6,7,8,9-hexahydro-4H- cyclohepta[d][1,3]thiaziin-9a-yl)-4- fluorophenyl]-6-chloropyridine-2- carboxamide [Example 248]", "values": [{"measurement": "IC50", "result": 16, "unit": "nM"}]}]}
